Experimental data: patent publication US4788206A, “Pentadieneamides” (Hoffmann-La Roche Inc., priority 1987, dated 1988)

Tests used:
[1] = target: T1, PAF Binding, dog platelets (Canis lupus familiaris, UniProt A0A8I3NSH0); assay: PAF Binding Assay (inhibition of 3H-PAF binding to washed dog platelets); conditions: dog platelets, 3H-PAF, 10 minutes at room temperature; read-out: Inhib of PAF Binding IC50
T1 construct: Washed platelets were prepared by resuspending the platelet pellet once with PBS containing 1 mM EDTA; from tissue; host or cells: washed platelets from dog blood
T1 sequence (A0A8I3NSH0 1-343): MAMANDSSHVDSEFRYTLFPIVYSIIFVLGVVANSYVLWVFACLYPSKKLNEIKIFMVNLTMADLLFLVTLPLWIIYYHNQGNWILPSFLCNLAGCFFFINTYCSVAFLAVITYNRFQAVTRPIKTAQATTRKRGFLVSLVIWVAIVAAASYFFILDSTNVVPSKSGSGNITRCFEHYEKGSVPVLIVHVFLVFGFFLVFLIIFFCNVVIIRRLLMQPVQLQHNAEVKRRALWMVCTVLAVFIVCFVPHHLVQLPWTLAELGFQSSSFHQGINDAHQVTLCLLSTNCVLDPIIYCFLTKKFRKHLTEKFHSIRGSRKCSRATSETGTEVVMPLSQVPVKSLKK
In short: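 Washed dog platelets (2×10^7 per tube, in 0.1% BSA-PBS) incubated 10 min at room temperature with 3H-PAF and test analogs. Bound ligand separated by 1 min centrifugation through silicone oil; platelet pellet radioactivity counted by liquid scintillation.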

[2] = tested on: PAF-Induced Bronchoconstriction; assay: PAF Induced Bronchoconstriction Assay; format: in vivo, guinea pig; conditions: for inhibition in vivo at 50 mg/kg: Cavia porcellus, po, 50 mg/Kg p.o., 2-hour pretreatment, read-out: Percent Inhib. of PAF-Induced Bronchoconstriction, 50 mg/Kg p.o.; for Percent Inhib. of PAF-Induced Bronchoconstriction, mg/Kg i.v.: i.v. (dose not given), 1 minute pretreatment, PAF 1.0 μg/kg i.v.
In short: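 Male Hartley guinea pigs, urethane-anesthetized (2 g/kg i.p.), ventilated, with succinylcholine 1.2 mg/kg i.v. and propranolol 0.1 mg/kg i.v. pretreatment. Compound given i.v. 1 min or by oral gavage 2 h before i.v. PAF challenge at 1.0 μg/kg. Peak tracheal pressure rise over baseline compared with control mean gives % inhibition.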

[3] = tested on: PAF-Induced Platelet Count Decrease; assay: PAF Induced Platelet Count Decrease; format: in vivo, guinea pig; conditions: for inhibition in vivo at 3 mg/kg: Cavia porcellus, Platelet, read-out: Percent Inhib. of PAF-Induced Platelet Count Decrease, 3 mg/Kg; for inhibition in vivo at 3 mg/kg / Percent Inhib. of PAF-Induced Platelet Count Decrease, 3 mg/Kg: 3 mg/Kg (route not given)
Experimental: PAF Induced Platelet Count Decrease
Male Hartley guinea pigs weighing between 500 and 900 grams were fed standard guinea pig chow and tap water ad libitum. PAF was solubilized in ethanol and stored as a 2 mM stock solution at -70° C. The stock solutuion of PAF was diluted to 1 pM in Tris buffer pH 7.4 and 0.1% BSA for all experiments.
(a) Intravenous Procedure
Guinea pigs were anesthetized with urethane (1.6 g/kg, i.p.). A catheter (PE50) was introduced into the right carotid artery for withdrawing blood. A second catheter PE10) was introduced into the jugular vein for injecting drugs and for administering the PAF challenge (75 ng/kg, i.v.). A control blood sample was obtained and platelets were counted in a whole blood platelet analyzer. PAF was then given and blood samples were taken 15, 30, and 60 seconds after the challenge for platelet counts. Fifteen minutes later, selected concentrations of the test compound were solubilized in DMSO and injected intravenously into a group of 4-6 animals. Only one concentration of antagonist was used in each animal group. Fifteen minutes after drug injection, blood smaples were taken before and 15, 30, and 60 sec after the PAF challenge, and analyzed for platelet number.
Animals were anesthetized with sodium pentobarbital (35 mg/kg. i.p.) and the caritoid artery and jugular vein were cannulated as described above. The cannulae were exteriorized at the base of the neck and the animals were allowed to recover. At least 18 hours after surgery, conscious unrestrained guinea pigs were used in the experiment. The animals were challenged two time with PAF (120 ng/kg. i.v.); the first to establish a consistent response to PAF and the second to serve as a control for the PAF challenge. Blood samples were taken before and 15, 30, and 45 seconds after PAF challenge and platelets were counted. Thirty minutes after the control PAF challenge, the animal were orally dosed with either gum acacia or the test compound. Animals were then challenged with PAF at 1, 3, 5, and 24 hours after the administration of the drug.
Data Analysis and Statistics
The % change, i.e., the difference in platelet number before and after PAF challenge was calculated by: [formula]
Statistical significance (p<0.05) of the difference between the mean PAF control and mean drug treated activity was determined with paried Students's t-test.

IC50 [1] | SMILES | inhibition in vivo at 50 mg/kg [2] | inhibition in vivo at 3 mg/kg [3] | Percent Inhib. of PAF-Induced Bronchoconstriction, mg/Kg i.v. [2] | Percent Inhib. of PAF-Induced Platelet Count Decrease, 30 mg/Kg p.o. [3] | Percent Inhib. of PAF-Induced Platelet Count Decrease, 3 mg/Kg [3] | Percent Inhib. of PAF-Induced Platelet Count Decrease, 3 mg/Kg (1 min) ([3]; 3 mg/Kg, (1 min))
20 nM | COc1cccc(/C(=C/C=C/C(=O)NCCCCc2cccnc2)c2ccccc2)c1 [(2E,4E)-5-(3-Methoxyphenyl)-5-phenyl-N-[4-(3-pyridinyl)butyl]-2,4-pentadienamide] | 13 ± 18% | 40% |  |  |  | 
2 nM | COc1cccc(C(=C/C=C/C(=O)NCCCCc2cccnc2)c2cccc(OC)c2)c1 [(E)-5,5-bis (3-methoxyphenyl)-N-[4-(3-pyridinyl)butyl]-2,4-pentadienamide] | 31 ± 11% | 75% | 69 ± 7% | 48% |  | 
150 nM | O=C(/C=C/C=C(c1cccc(C(F)(F)F)c1)c1cccc(C(F)(F)F)c1)NCCCCc1cccnc1 [(E)-5,5-bis[3-(trifluoromethyl)phenyl]-N-[4-(3-pyridinyl)butyl]-2,4-pentadienamide] |  | 83% | inactive |  |  | 
55 nM | O=C(/C=C/C=C(c1ccccc1)c1ccccc1)NCCCCc1cccnc1 [(E)-5,5-Diphenyl-N-[4-(3-pyridinyl)butyl]-2,4-pentadienamide] | 12 ± 1% | 14% | 35 ± 15% |  |  | 
20 nM | O=C(/C=C/C=C(c1cccc(F)c1)c1cccc(F)c1)NCCCCc1cccnc1 [(E)-5,5-bis(3-Fluorophenyl)-N-[4-(3-pyridinyl)butyl]-2,4-pentadienamide] | 37 ± 11% | 61% | 72 ± 16% | 58% |  | 
 | C[C@H](CCCc1cccnc1)NC(=O)/C=C/C=C(c1ccc(F)cc1)c1ccc(F)cc1 [[R-(E)]-5,5-bis (4-fluorophenyl)-N-[1-methyl-4-(3-pyridinyl)butyl]-2,4-pentadienamide] | 53 ± 11% | 11% | 70 ± 9% |  |  | 
80 nM | O=C(/C=C/C=C(c1ccccc1C(F)(F)F)c1ccccc1C(F)(F)F)NCCCCc1cccnc1 [(E)-5,5-bis[2-(Trifluoromethyl)phenyl]-N-[4-(3-pyridinyl)butyl]-2,4-pentadienamide] |  | 0% | 6 ± 10% |  |  | 
 | COc1ccc(C(=C/C=C/C(=O)N[C@@H](C)CCCc2cccnc2)c2ccc(OC)cc2)cc1 [[S-(E)]-5,5-bis(4-Methoxyphenyl)-N-[1-methyl-4-(3-pyridinyl)butyl]-2,4-pentadienamide] | 90 ± 6% | 42% | 42 ± 13% |  |  | 
 | C[C@H](CCCc1cccnc1)NC(=O)/C=C/C=C(c1cccc(F)c1)c1cccc(F)c1 [[R-(E)]-5,5-bis(3-fluorophenyl)-N-[1-methyl-4-(3-pyridinyl)butyl]-2,4-pentadienamide] | 91 ± 5% | 17% | 73 ± 6% |  |  | 
25 nM | COc1cccc(/C(=C\C=C\C(=O)NCCCCc2cccnc2)c2cccc(F)c2)c1 [(2E,4E)-5-(3-fluorophenyl)-5-(3-methoxyphenyl)-N-[4-(3-pyridinyl)butyl]-2,4-pentadienamide] | 25 ± 14% |  | 88 ± 4% |  | inactive | 
35 nM | COc1cccc(C(=C/C=C/C(=O)N[C@H](C)CCCc2cccnc2)c2cccc(OC)c2)c1 [[R-(E)]-5,5-bis (3-methoxyphenyl)-N-[1-methyl-4-(3-pyridinyl)butyl]-2,4-pentadienamide] | 87 ± 8% | 31% | 87 ± 4% |  |  | 
 | COc1ccc(C(=C/C=C/C(=O)N[C@H](C)CCCc2cccnc2)c2ccc(OC)cc2)cc1 [[R-(E)]-5,5-bis(4-methoxyphenyl)-N-[1-methyl-4-(3-pyridinyl)butyl]-2,4-pentadienamide] | 97 ± 2% | 85% | 87 ± 4% | 81% |  | 
 | C[C@@H](CCCc1cccnc1)NC(=O)/C=C/C=C(c1cccc(F)c1)c1cccc(F)c1 [[S-(E)]-5,5-bis(3-fluorophenyl)-N-[1-methyl-4-(3-pyridinyl)butyl]-2,4-pentadienamide] | 46 ± 8% | 19% | 34 ± 7% |  |  | 
300 nM | COc1cccc(C(=C/C=C/C(=O)N[C@@H](C)CCCc2cccnc2)c2cccc(OC)c2)c1 [[S-(E)]-5,5-bis(3-methoxyphenyl)-N-[1-methyl-4-(3-pyridinyl)butyl]-2,4-pentadienamide] | 10 ± 5% | 10% | 36 ± 4% |  |  | 
25 nM | COc1ccc(C(=C/C=C/C(=O)NCCCCc2cccnc2)c2ccc(OC)cc2)cc1 [(E)-5,5-bis(4-Methoxyphenyl)-N-[4-(3-pyridinyl)butyl]-2,4-pentadienamide] | 82 ± 12% | 40% | 92 ± 3% | 45% |  | 
40 nM | COc1cccc(/C(=C/C=C/C(=O)NCCCCc2cccnc2)c2cccc(F)c2)c1 [(2E,4Z)-5-(3-fluorophenyl)-5-(3-methoxyphenyl)-N-[4-(3-pyridinyl)butyl]-2,4-pentadienamide] | 1 ± 8% |  | 90 ± 5% |  |  | 67%
35 nM | COc1cccc(/C(=C\C=C\C(=O)NCCCCc2cccnc2)c2ccccc2)c1 [(2E,4Z)-5-(3-methoxyphenyl)-5-phenyl-N-[4-(3-pyridinyl)butyl]-2,4-pentadienamide] | 10 ± 10% |  |  |  | inactive | 
 | O=C(/C=C/C=C(c1cccc(Cl)c1)c1cccc(Cl)c1)NCCCCc1cccnc1 [(E)-5,5-bis(3-chlorophenyl)-N-[4-(3-pyridinyl)butyl]-2,4-pentadienamide] | 35 ± 7% | 21% | 76 ± 14% |  |  | 
30 nM | COc1ccc(/C=C/C=C/C(=O)N[C@H](C)CCCc2cccnc2)cc1 [[R-(E,E)]-5-(4-methoxyphenyl)-N-[1-methyl-4-(3-pyridinyl)butyl]-2,4-pentadienamide] |  |  | 17 ± 13% |  |  | 
40 nM | O=C(/C=C/C=C(c1ccc(F)cc1)c1ccc(F)cc1)NCCCCc1cccnc1 [(E)-5,5-bis(4-fluorophenyl)-N-[4-(3-pyridinyl)butyl]-2,4-pentadienamide] | 97 ± 1% | 18% | 91 ± 3% |  |  | 
60 nM | O=C(/C=C/C=C(c1ccc(Cl)cc1)c1ccc(Cl)cc1)NCCCCc1cccnc1 [(E)-5,5-bis(4-chlorophenyl)-N-[4-(3-pyridinyl)butyl]-2,4-pentadienamide] | 63 ± 10% | 0% | 95 ± 2% |  |  | 
